# Laboratory results published in patent publication US8637269B2, “Method for the detection of melamine” (Bioo Scientific Corporation, priority 2009, dated 2014).
# Biological target: recombinant MDA enzyme (melamine deaminase, Tri A) (Paracidovorax citrulli, UniProt Q9EYU0)
# Test: Enzymatic detection of melamine in microtiter plates (MDA-mediated conversion to ammonia, indophenol colour)
# Assay type: biochemical, Pseudomonas sp. strain NRRL B-12227
# Conditions: melamine (1000 ppm stock) and MDA enzyme diluted in 0.1 M Na-MOPS pH 7, overnight (about 12 hours), room temperature; salicylate/nitroprusside and NaOH/hypochlorite reagents; FIG. 2
# Source text: The TriA gene encoding the melamine deaminase enzyme was inserted into the multiple cloning site region of the pET 24b bacterial expression plasmid. This subcloning strategy places the gene under the transcriptional regulation of the T7 RNA polymerase and fuses a His6 peptide tag onto the C-terminus of the protein to facilitate purification. We expressed the protein (MW about 50 kDa) in E. coli strain BL21 (DE3) and obtained significant amounts of soluble protein in the induced bacterial cultures. After disruption the lysed cell extract was passed over a Talon Cobalt column to bind the His6-tagged protein. After washing the column the bound protein was eluted from the column and dialyzed to remove imidazole.
# Purified, desalted recombinant MDA enzyme (about 2 mg/ml in 0.1 M Na-MOPS buffer pH 7) and melamine (1000 ppm) were diluted into 0.1 M Na-MOPS buffer (pH 7) and incubated overnight (about 12 hours) at room temperature. Reaction aliquots were removed and tested for the production of ammonia by mixing the samples with salicylate/nitroprusside and NaOH/hypochlorite reagents in 96 well microtiter plates.
# Sequence of recombinant MDA enzyme (melamine deaminase, Tri A) (Q9EYU0 whole entry): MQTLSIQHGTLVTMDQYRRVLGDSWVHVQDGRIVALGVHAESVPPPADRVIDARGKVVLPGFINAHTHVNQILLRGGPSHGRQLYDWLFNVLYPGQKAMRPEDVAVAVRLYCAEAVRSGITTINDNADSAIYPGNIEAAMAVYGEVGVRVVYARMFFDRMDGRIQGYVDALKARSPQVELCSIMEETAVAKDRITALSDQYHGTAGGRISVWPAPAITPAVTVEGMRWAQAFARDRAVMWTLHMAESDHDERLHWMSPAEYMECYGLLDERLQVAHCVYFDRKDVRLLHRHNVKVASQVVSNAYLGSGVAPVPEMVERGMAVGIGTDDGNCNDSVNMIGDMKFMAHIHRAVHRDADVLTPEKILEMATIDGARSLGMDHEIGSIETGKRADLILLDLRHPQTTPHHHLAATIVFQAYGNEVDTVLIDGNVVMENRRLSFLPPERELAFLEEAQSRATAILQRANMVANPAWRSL
smiles,measurement,value
Nc1nc(N)nc(N)n1 [melamine],color change indicating MDA-mediated conversion of melamine to ammonia,strong color change
